Drawing on the NIST ThermoML archive (doi:10.1021/je9008156), this text covers Normal melting temperature for one compound.

For the series the following is noted: Crystal; visual observation.

Numbers after ± are expanded uncertainties.

As for `Nc1c(I)c(C(=O)NCC(O)CO)c(I)c(C(=O)NCC(O)CO)c1I` (stereo unspecified), the Normal melting temperature was 193.00 ± 0.5 °C.
